{
  "source": "patent US6818656B2",
  "about": "“Method and composition for treatment of irritable bowel disease” (University of Florida, priority 2001, dated 2004)",
  "key": {"[1]": {"system": "castor oil-induced diarrhea", "settings": "cited from earlier work; for activity in castor oil-induced diarrhea model (in words): rodent"}, "[2]": {"settings": "cited from earlier work"}, "[3]": {"settings": "compared with DEHSPM; cited from earlier work"}, "diarrhea": {"system": "diarrhea", "settings": "animal models and clinic; cited from earlier work"}, "[4]": {"system": "stress-induced fecal output", "assay": "Psychological stress-induced (water avoidance) IBS model, PO administration by gavage", "assay_type": "in vivo, rat", "settings": "for oral activity against stress-induced fecal output (in words): PO gavage, non-fasted rats, 11.6-115.6 μmol/kg", "text": "(§1) For drug preparation and administration, the compounds were put into solution with sterile normal saline and sonicated briefly, if necessary. The drugs were made up at concentrations such that the rats received the drugs PO or SC at the rate of 1 cc per kilogram. Mice received the CHX(3,4,3)-trans IP at 1 cc per 100 grams. The solutions were made fresh the day of the study. Control animals received an equivalent amount of saline PO or SC.\n(§2) Animal care and experimental procedures were approved by the Institutional Animal Care and Use Committee. Male Sprague-Dawley rats (250-350 g, Harlan Sprague-Dawley, Indianapolis, Ind.) were housed in polycarbonate cages in a temperature- and humidity-controlled room with a 12-hour light/dark cycle. The experiments were performed at the same time of the day to decrease diurnal variability. A typical experiment involved 20 rats: 5 saline-treated controls and 5 pretreated with polyamine analogues at each of three doses as either a SC injection or a PO gavage. The rats in the SC studies and in one set of experiments involving PO administration were allowed ad libitum access to a standard rodent diet and tap water until the morning of the experiment. Stress was initiated 30 minutes post drug as described below. In another set of experiments involving PO administration, the animals were fasted overnight but were allowed free access to water. The animals were then stressed from ½ h to 2 h post-drug (data not shown). In a final experiment, non-stressed control rats were injected with saline SC and housed in individual polycarbonate cages. The fecal output (number of pellets) of the stressed and unstressed animals was recorded at 30-min intervals for a 6-h period, during which they received no food or water.\nOnce the drug had been administered, the animals were housed individually in polycarbonate cages containing a clear 70×50 mm Pyrex crystallization dish (Fisher, Pittsburgh, Pa.) inverted in the center and held in place with vacuum grease. To initiate the stress, water was added to each cage to a depth of at least 4.5 cm, i.e., within 0.5 cm of the top of the Pyrex dish. To avoid contact with water, the rats stand on the glass dish for the 6 h of the study. Stool output was expressed as the total number of fecal pellets excreted over the 6-h collection period. Percent reduction was calculated by dividing the mean value from the treated animals (T) by the mean value from the control animals (C), subtracting the resulting quotient from 1.0, and multiplying by 100 [i.e., (1.0−T/C)×100].\n(§3) A one-tailed t-test assuming unequal variance was performed on the stool output data of the treated vs control (0 mg/kg) animals for each compound. A value of P<0.05 was considered significant.\nBecause an orally active compound would be desirable for the treatment of IBS, selected analogues utilizing oral administration in the same model were assessed. In the initial studies animals were utilized that had been fasted overnight. Rodents were then given the drug of interest PO by gavage and stressed ½ h, 1 h, or 2 h post-drug. Unfortunately, because of the low baseline stool output in fasted control rats, the reductions in fecal output observed upon drug administration cannot be reported with any confidence (data not shown). Thereafter, only non-fasted animals were employed and were given the agents by gavage at doses of 11.6, 23.2, 57.8, or 115.6:mol/kg 30 minutes before initiating the stress. […] At doses of 11.6 and 23.2:mol/kg, CHX(3,4,3)-trans reduced stooling by about 80% (P=0.001 and <0.001, respectively). DEHSPM was effective at a dose of […]:mol/kg (40% diminution of fecal output; P<0.01), and DE(5,4,5) was active at doses of 23.2 and 57.8:mol/kg (55 and 73% reductions in fecal output, respectively; P<0.001 for both doses)."}, "[5]": {"system": "stress-induced fecal output", "assay": "Psychological stress-induced (water avoidance) IBS model, SC administration", "assay_type": "in vivo", "settings": "for Stool Output: 6-h collection", "text": "as §1\nas §2, with “The animals were then stressed from ½ h to 2 h post-drug (data not shown).” left out\nTo initiate the stress, water was added to each cage to a depth of at least 4.5 cm, i.e., within 0.5 cm of the top of the Pyrex dish. To avoid contact with water, the rats stand on the glass dish for the 6 h of the study. Stool output was expressed as the total number of fecal pellets excreted over the 6-h collection period. Percent reduction was calculated by dividing the mean value from the treated animals (T) by the mean value from the control animals (C), subtracting the resulting quotient from 1.0, and multiplying by 100 [i.e., (1.0−T/C)×100].\nas §3\nThe psychological stress-induced IBS model involves subjecting the rats to an aversive stimulus (water) and observing the increase in fecal output over a period of time. […] Control rats received an equivalent amount of saline SC."}, "[6]": {"assay": "Acute toxicity assessment, single intraperitoneal injection", "assay_type": "in vivo", "settings": "toxic doses, mice", "procedure": "For the acute toxicity assessment the CHX(3,4,3)-trans was administered to female CD-1 mice (Charles River, Wilmington, Mass.) as a single intraperitoneal (IP) injection. The animals were carefully observed post-dosing and were scored 2 h after administration of the drug.\nas §1"}, "[7]": {"settings": "mice; N-de-ethylated metabolite of DEHSPM; cited from earlier work"}, "[8]": {"settings": "dog; relative to 2-3 weeks in mice; cited from earlier work"}, "[9]": {"system": "constipation-predominant IBS", "settings": "eight patients, 16 mg three times a week, eight weeks; cited from earlier work"}, "[10]": {"settings": "dogs, 4.3 mg/kg/day for 14 days or 2.15 mg/kg/d for 28 days"}, "[11]": {"settings": "2.3 μmol/kg SC, stress 30 min post drug"}, "[12]": {"settings": "Rattus norvegicus, 57.8 μmol/kg SC, vs stressed controls, 6 h, read-out: % Reduction"}},
  "note": "Like-named read-outs stand apart in the source and are kept apart here.",
  "data": [
    {"smiles": "CCNCC[C@@H](O)CNCCCCNC[C@H](O)CCNCC", "note": "[(HO)2DEHSPM, (3R, 12R)-N^1,N^14-diethyl-3,12-dihydroxyhomospermine]", "values": [
      {"measurement": "activity in castor oil-induced diarrhea model (in words)", "setting": "[1]", "result": "considerably decreased stool output"},
      {"measurement": "onset of exocrine pancreatic insufficiency post-final dose", "setting": "[2]; [10]", "result": "approximately 40 days"},
      {"measurement": "pancreatic toxicity", "setting": "[2]; [10]", "result": "exocrine pancreatic insufficiency developed"},
      {"measurement": "induction of cardiac bigeminies", "setting": "[2]; treated dogs", "result": "minimal"},
      {"measurement": "residence time in most mouse tissues", "setting": "[3]", "result": "shorter than that of DEHSPM"},
      {"measurement": "antidiarrheal activity (in words)", "setting": "diarrhea", "result": "as effective an antidiarrheal as DEHSPM"}
    ]},
    {"smiles": "CCNCCCNCCCNCCCNCC", "note": "[Compound 1, N^1,N^11-diethylnorspermine]", "values": [
      {"measurement": "activity in castor oil-induced diarrhea model (in words)", "setting": "[1]; listed as DENSPM", "result": "ineffective in reducing stooling"},
      {"measurement": "oral activity against stress-induced fecal output (in words)", "setting": "[4]", "result": "only CHX(3,4,3)-trans, DEHSPM, and DE(5,4,5) showed any activity at all"},
      {"measurement": "Stool Output", "setting": "[5]; [11]", "result": "17.4 ± 5.1 number of fecal pellets"},
      {"measurement": "Stool Output", "setting": "[5]; 11.6 μmol/kg SC", "result": "15.2 ± 4.5 number of fecal pellets"},
      {"measurement": "Stool Output", "setting": "[5]; 57.8 μmol/kg SC", "result": "13.4 ± 5.9 number of fecal pellets"},
      {"measurement": "activity at diminishing stress-induced fecal output (in words)", "setting": "[5]; SC administration to stressed rats, listed as DENSPM", "result": "completely ineffective"}
    ]},
    {"smiles": "CCNCCCNCCCCNCCCNCC", "note": "[Compound 3, N^1,N^12 diethylspermine]", "values": [
      {"measurement": "oral activity against stress-induced fecal output (in words)", "setting": "[4]", "result": "only CHX(3,4,3)-trans, DEHSPM, and DE(5,4,5) showed any activity at all"},
      {"measurement": "Stool Output", "setting": "[5]; 23.2 μmol/kg SC", "result": "12.5 ± 2.9 number of fecal pellets"},
      {"measurement": "Stool Output", "setting": "[5]; 35.4 μmol/kg SC", "result": "9.0 ± 6.3 number of fecal pellets"},
      {"measurement": "Stool Output", "setting": "[5]; 61 μmol/kg SC", "result": "2.8 ± 2.7 number of fecal pellets"},
      {"measurement": "inhibition in vivo at 23.2 µmol/kg", "setting": "[5]; Rattus norvegicus, 23.2 μmol/kg SC, vs stressed controls, 6 h, read-out: % Reduction", "result": 35, "unit": "%"},
      {"measurement": "inhibition in vivo at 35.4 µmol/kg", "setting": "[5]; Rattus norvegicus, 35.4 μmol/kg SC, vs stressed controls, 6 h, read-out: % Reduction", "result": 53, "unit": "%"},
      {"measurement": "inhibition in vivo at 61 µmol/kg", "setting": "[5]; Rattus norvegicus, 61 μmol/kg SC, vs stressed controls, 6 h, read-out: % Reduction", "result": 90, "unit": "%"},
      {"measurement": "signs of acute toxicity in mice", "setting": "[6]", "result": "generalized depression with respiratory failure"}
    ]},
    {"smiles": "CC(C)CCNCCCNCCCCNCCCNCCC(C)C", "note": "[Compound 9]", "values": [
      {"measurement": "neurotoxicity in rats at subtherapeutic doses", "setting": "[1]; doses equivalent to a 5 mg/kg dose of DEHSPM", "result": "Signs of neurotoxicity"},
      {"measurement": "Stool Output", "setting": "[5]; [11]", "result": "18.2 ± 2.8 number of fecal pellets"},
      {"measurement": "Stool Output", "setting": "[5]; 11.6 μmol/kg SC", "result": "14.6 ± 4.5 number of fecal pellets"},
      {"measurement": "toxic effects observed in stressed rats", "setting": "[5]; 57.8 μmol/kg SC", "result": "^hDue to severe CNS toxicity, 3 of the 5 rats were removed after 4-4.5 h; neither of the remaining 2 rats had any stool output for the remainder of the study."},
      {"measurement": "Stool Output", "setting": "[5]; 57.8 μmol/kg SC", "result": "0 ± 0 number of fecal pellets"},
      {"measurement": "toxic effects observed in stressed rats", "setting": "[5]; 57.8 μmol/kg SC, listed as DIPESPM", "result": "severe neurotoxicity"},
      {"measurement": "inhibition in vivo at 57.8 µmol/kg", "setting": "[5]; [12]", "result": 100, "unit": "%"}
    ]},
    {"smiles": "CCNCCCCNCCCCNCCCCNCC", "note": "[Compound 13, N^1,N^14-diethylhomospermine]", "values": [
      {"measurement": "time at which arrhythmia was apparent in 6-lead EKG", "setting": "[2]; SC, dogs, 2 mg/kg daily", "result": "as early as three days"},
      {"measurement": "cardiac effect", "setting": "[2]; SC, three dogs, 2 mg/kg daily for 11-17 days", "result": "ventricular bigeminies"},
      {"measurement": "Stool Output", "setting": "[4]; 115.6 μmol/kg PO, 6-hr collection", "result": "10.6 ± 1.8 number of fecal pellets"},
      {"measurement": "% Reduction", "setting": "[4]; 115.6 μmol/kg PO, vs stressed controls, 6 hr", "result": 40, "unit": "%"},
      {"measurement": "diminution of fecal output", "setting": "[4]; 15.6 :mol/kg PO", "result": 40, "unit": "%"},
      {"measurement": "Stool Output", "setting": "[5]; 11.6 μmol/kg SC", "result": "2.1 ± 2.1 number of fecal pellets"},
      {"measurement": "Stool Output", "setting": "[5]; 57.8 μmol/kg SC", "result": "0 ± 0 number of fecal pellets"},
      {"measurement": "inhibition in vivo at 11.6 µmol/kg", "setting": "[5]; Rattus norvegicus, 11.6 μmol/kg SC, vs stressed controls, 6 h, read-out: % Reduction", "result": 89, "unit": "%"},
      {"measurement": "inhibition in vivo at 57.8 µmol/kg", "setting": "[5]; [12]", "result": 100, "unit": "%"},
      {"measurement": "signs of acute toxicity in mice", "setting": "[6]", "result": "generalized depression with respiratory failure"},
      {"measurement": "antidiarrheal activity (in words)", "setting": "diarrhea", "result": "very potent antidiarrheal"}
    ]},
    {"smiles": "NCCCCNCCCCNCCCCN", "note": "[HSPM, homospermine]", "values": [
      {"measurement": "half-life", "setting": "[7]", "result": "2-3 weeks"},
      {"measurement": "half-life", "setting": "[8]", "result": "even longer"}
    ]},
    {"smiles": "C=C1CCC2(O)C3Cc4ccc(OC5OC(C(=O)O)C(O)C(O)C5O)c5c4C2(CCN3CC2CC2)C1O5", "note": "(stereo not drawn) [Nalmefene glucuronide]", "values": [
      {"measurement": "abdominal pain or bloating", "setting": "[9]", "result": "did not reduce abdominal pain or bloating"},
      {"measurement": "transit time and stool frequency", "setting": "[9]", "result": "decreased transit time and increased stool frequency"}
    ]}
  ]
}
